This passage reports TGI results from PubChem BioAssay (NCI).

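Assay format: 96-well plates, 48-hour exposure. TGI marks complete inhibition of growth.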 A value given as a limit tells only on which side of the number the result lay.

For one assay, the system named is HOP-62 NSCLC. The assay is described as follows: growth of human tumour cells (NCI), 48 h.
In the case of `OC1(c2cccs2)c2cccc(Cl)c2C(O)(c2cccs2)c2c(Cl)cccc21` (stereo not given), the TGI is greater than 100 µM.
Same read-out and setting: to `CCc1c2c([nH]c(=S)c1C#N)CCC2` belongs greater than 100 µM.
Still for that read-out and setting: to `C=CCN1C(=O)/C(=C/c2ccc(OC)cc2)N=C1SC/C=C/C` belongs greater than 100 µM; to `O=C(ON=C1c2ccccc2C(Br)C(Br)c2ccccc21)c1cc([N+](=O)[O-])cc([N+](=O)[O-])c1` (stereo not given), 34.3 µM.
Still for that read-out and setting: next, `Cn1c2ccccc2c2c(-c3ccccc3)cc3c(c21)C(=O)C=CC3=O`: greater than 10 µM; `C=CCNC1=C2C[C@@H](C)C[C@@H](OC)[C@H](OC(=O)CCN)[C@H](C)/C=C(\C)[C@@H](OC(N)=O)[C@H](OC)/C=C\C=C(/C)C(=O)NC(=CC1=O)C2=O`: 17.5 µM.
The molecule `C1=NCCN2CCN(CCN=Cc3ccc(cc3)OCc3cccc(n3)COc3ccc1cc3)CC2` gave a TGI greater than 50 µM.
`CC(CCN)(CCN)[N+](=O)[O-]`: the TGI is greater than 100 µM.
Consider `O=C([O-])C[n+]1ccccc1`, for which the TGI was greater than 100 µM.

A further assay relates to RXF 393 renal. The assay is described as follows: growth of human tumour cells (NCI), 48 h.
As for `OC1(c2cccs2)c2cccc(Cl)c2C(O)(c2cccs2)c2c(Cl)cccc21` (stereo not given), the TGI is greater than 100 µM.
`CCc1c2c([nH]c(=S)c1C#N)CCC2` registered a TGI greater than 100 µM.
For `C=CCN1C(=O)/C(=C/c2ccc(OC)cc2)N=C1SC/C=C/C`, the TGI came out at 87 µM.
The same measure, in the same setting: to `O=C(ON=C1c2ccccc2C(Br)C(Br)c2ccccc21)c1cc([N+](=O)[O-])cc([N+](=O)[O-])c1` (stereo not given) belongs 36.6 µM; to `Cn1c2ccccc2c2c(-c3ccccc3)cc3c(c21)C(=O)C=CC3=O`, 3.83 µM.
Still for that read-out and setting: next, `C=CCNC1=C2C[C@@H](C)C[C@@H](OC)[C@H](OC(=O)CCN)[C@H](C)/C=C(\C)[C@@H](OC(N)=O)[C@H](OC)/C=C\C=C(/C)C(=O)NC(=CC1=O)C2=O`: 15.1 µM; `C1=NCCN2CCN(CCN=Cc3ccc(cc3)OCc3cccc(n3)COc3ccc1cc3)CC2`: greater than 50 µM; `CC(CCN)(CCN)[N+](=O)[O-]`: greater than 100 µM.
On the same count and under the same terms, next, `O=C([O-])C[n+]1ccccc1`: greater than 100 µM.

Another assay concerns NCI-H522 lung. Briefly: growth of human tumour cells (NCI), 48 h.
The molecule `OC1(c2cccs2)c2cccc(Cl)c2C(O)(c2cccs2)c2c(Cl)cccc21` (stereo not given) yielded a TGI greater than 100 µM.
`CCc1c2c([nH]c(=S)c1C#N)CCC2` registered a TGI greater than 100 µM.
Molecule `C=CCN1C(=O)/C(=C/c2ccc(OC)cc2)N=C1SC/C=C/C` gave a TGI greater than 100 µM.
On the same count and under the same terms, next, `O=C(ON=C1c2ccccc2C(Br)C(Br)c2ccccc21)c1cc([N+](=O)[O-])cc([N+](=O)[O-])c1` (stereo not given): 14.3 µM; `Cn1c2ccccc2c2c(-c3ccccc3)cc3c(c21)C(=O)C=CC3=O`: 2.74 µM; `C=CCNC1=C2C[C@@H](C)C[C@@H](OC)[C@H](OC(=O)CCN)[C@H](C)/C=C(\C)[C@@H](OC(N)=O)[C@H](OC)/C=C\C=C(/C)C(=O)NC(=CC1=O)C2=O`: 20.2 µM.
`C1=NCCN2CCN(CCN=Cc3ccc(cc3)OCc3cccc(n3)COc3ccc1cc3)CC2` had a TGI greater than 50 µM.
Same read-out and setting: to `CC(CCN)(CCN)[N+](=O)[O-]` belongs greater than 100 µM.
Regarding `O=C([O-])C[n+]1ccccc1`, the TGI is greater than 100 µM.

The subject of a further assay is DU-145 prostate. The assay is described as follows: growth of human tumour cells (NCI), 48 h.
In the case of `OC1(c2cccs2)c2cccc(Cl)c2C(O)(c2cccs2)c2c(Cl)cccc21` (stereo not given), the TGI was greater than 100 µM.
Same read-out and setting: next, `CCc1c2c([nH]c(=S)c1C#N)CCC2`: greater than 100 µM; `C=CCN1C(=O)/C(=C/c2ccc(OC)cc2)N=C1SC/C=C/C`: greater than 100 µM; `O=C(ON=C1c2ccccc2C(Br)C(Br)c2ccccc21)c1cc([N+](=O)[O-])cc([N+](=O)[O-])c1` (stereo not given): 66 µM.
Take `Cn1c2ccccc2c2c(-c3ccccc3)cc3c(c21)C(=O)C=CC3=O`: the TGI is greater than 10 µM.
Same read-out and setting: to `C=CCNC1=C2C[C@@H](C)C[C@@H](OC)[C@H](OC(=O)CCN)[C@H](C)/C=C(\C)[C@@H](OC(N)=O)[C@H](OC)/C=C\C=C(/C)C(=O)NC(=CC1=O)C2=O` belongs 16 µM; to `C1=NCCN2CCN(CCN=Cc3ccc(cc3)OCc3cccc(n3)COc3ccc1cc3)CC2`, greater than 50 µM; to `CC(CCN)(CCN)[N+](=O)[O-]`, greater than 100 µM.
The same measure, in the same setting: next, `O=C([O-])C[n+]1ccccc1`: greater than 100 µM.

The test system of a further assay is NCI-H460 lung. The assay is described as follows: growth of human tumour cells (NCI), 48 h.
In turn, `OC1(c2cccs2)c2cccc(Cl)c2C(O)(c2cccs2)c2c(Cl)cccc21` (stereo not given) returned a TGI greater than 100 µM.
Same read-out and setting: to `CCc1c2c([nH]c(=S)c1C#N)CCC2` belongs greater than 100 µM; to `C=CCN1C(=O)/C(=C/c2ccc(OC)cc2)N=C1SC/C=C/C`, greater than 100 µM; to `O=C(ON=C1c2ccccc2C(Br)C(Br)c2ccccc21)c1cc([N+](=O)[O-])cc([N+](=O)[O-])c1` (stereo not given), 38.2 µM.
The same measure, in the same setting: to `Cn1c2ccccc2c2c(-c3ccccc3)cc3c(c21)C(=O)C=CC3=O` belongs greater than 10 µM; to `C=CCNC1=C2C[C@@H](C)C[C@@H](OC)[C@H](OC(=O)CCN)[C@H](C)/C=C(\C)[C@@H](OC(N)=O)[C@H](OC)/C=C\C=C(/C)C(=O)NC(=CC1=O)C2=O`, 15.2 µM.
As for `C1=NCCN2CCN(CCN=Cc3ccc(cc3)OCc3cccc(n3)COc3ccc1cc3)CC2`, the TGI is greater than 50 µM.
The same measure, in the same setting: next, `CC(CCN)(CCN)[N+](=O)[O-]`: greater than 100 µM; `O=C([O-])C[n+]1ccccc1`: greater than 100 µM.

For the next assay, the system named is A498 renal. The assay is described as follows: growth of human tumour cells (NCI), 48 h.
Molecule `OC1(c2cccs2)c2cccc(Cl)c2C(O)(c2cccs2)c2c(Cl)cccc21` (stereo not given) showed a TGI greater than 100 µM.
`CCc1c2c([nH]c(=S)c1C#N)CCC2` came in with a TGI greater than 100 µM.
The same measure, in the same setting: next, `C=CCN1C(=O)/C(=C/c2ccc(OC)cc2)N=C1SC/C=C/C`: greater than 100 µM; `O=C(ON=C1c2ccccc2C(Br)C(Br)c2ccccc21)c1cc([N+](=O)[O-])cc([N+](=O)[O-])c1` (stereo not given): 33.1 µM.
On the same count and under the same terms, next, `Cn1c2ccccc2c2c(-c3ccccc3)cc3c(c21)C(=O)C=CC3=O`: 6.18 µM.
On the same count and under the same terms, to `C=CCNC1=C2C[C@@H](C)C[C@@H](OC)[C@H](OC(=O)CCN)[C@H](C)/C=C(\C)[C@@H](OC(N)=O)[C@H](OC)/C=C\C=C(/C)C(=O)NC(=CC1=O)C2=O` belongs 17.6 µM; to `C1=NCCN2CCN(CCN=Cc3ccc(cc3)OCc3cccc(n3)COc3ccc1cc3)CC2`, greater than 50 µM.
`CC(CCN)(CCN)[N+](=O)[O-]` came in with a TGI greater than 100 µM.
`O=C([O-])C[n+]1ccccc1` gave a TGI greater than 100 µM.

A further assay deals with A549 NSCLC. The assay is described as follows: growth of human tumour cells (NCI), 48 h.
Turning to `OC1(c2cccs2)c2cccc(Cl)c2C(O)(c2cccs2)c2c(Cl)cccc21` (stereo not given), the TGI is greater than 100 µM.
Turning to `CCc1c2c([nH]c(=S)c1C#N)CCC2`, the TGI was greater than 100 µM.
As to `C=CCN1C(=O)/C(=C/c2ccc(OC)cc2)N=C1SC/C=C/C`, the TGI was greater than 100 µM.
The molecule `O=C(ON=C1c2ccccc2C(Br)C(Br)c2ccccc21)c1cc([N+](=O)[O-])cc([N+](=O)[O-])c1` (stereo not given) returned a TGI of 75.7 µM.
`Cn1c2ccccc2c2c(-c3ccccc3)cc3c(c21)C(=O)C=CC3=O`: the TGI was greater than 10 µM.
Same read-out and setting: to `C=CCNC1=C2C[C@@H](C)C[C@@H](OC)[C@H](OC(=O)CCN)[C@H](C)/C=C(\C)[C@@H](OC(N)=O)[C@H](OC)/C=C\C=C(/C)C(=O)NC(=CC1=O)C2=O` belongs 18.5 µM; to `C1=NCCN2CCN(CCN=Cc3ccc(cc3)OCc3cccc(n3)COc3ccc1cc3)CC2`, greater than 50 µM; to `CC(CCN)(CCN)[N+](=O)[O-]`, greater than 100 µM.
Consider `O=C([O-])C[n+]1ccccc1`, for which the TGI was greater than 100 µM.

The next assay concerns UACC-62 melanoma. Briefly: growth of human tumour cells (NCI), 48 h.
For the molecule `OC1(c2cccs2)c2cccc(Cl)c2C(O)(c2cccs2)c2c(Cl)cccc21` (stereo not given), the TGI was greater than 100 µM.
Same read-out and setting: to `CCc1c2c([nH]c(=S)c1C#N)CCC2` belongs greater than 100 µM; to `C=CCN1C(=O)/C(=C/c2ccc(OC)cc2)N=C1SC/C=C/C`, greater than 100 µM.
On the same count and under the same terms, next, `O=C(ON=C1c2ccccc2C(Br)C(Br)c2ccccc21)c1cc([N+](=O)[O-])cc([N+](=O)[O-])c1` (stereo not given): 38.5 µM; `Cn1c2ccccc2c2c(-c3ccccc3)cc3c(c21)C(=O)C=CC3=O`: 2.64 µM; `C=CCNC1=C2C[C@@H](C)C[C@@H](OC)[C@H](OC(=O)CCN)[C@H](C)/C=C(\C)[C@@H](OC(N)=O)[C@H](OC)/C=C\C=C(/C)C(=O)NC(=CC1=O)C2=O`: 12.3 µM.
The same measure, in the same setting: to `C1=NCCN2CCN(CCN=Cc3ccc(cc3)OCc3cccc(n3)COc3ccc1cc3)CC2` belongs greater than 50 µM.
In the case of `CC(CCN)(CCN)[N+](=O)[O-]`, the TGI was greater than 100 µM.
On the same count and under the same terms, to `O=C([O-])C[n+]1ccccc1` belongs greater than 100 µM.

The subject of another assay is NCI/ADR-RES ovarian. Briefly: growth of human tumour cells (NCI), 48 h.
Turning to `OC1(c2cccs2)c2cccc(Cl)c2C(O)(c2cccs2)c2c(Cl)cccc21` (stereo not given), the TGI was greater than 100 µM.
Molecule `CCc1c2c([nH]c(=S)c1C#N)CCC2` yielded a TGI greater than 100 µM.
Still for that read-out and setting: next, `C=CCN1C(=O)/C(=C/c2ccc(OC)cc2)N=C1SC/C=C/C`: greater than 100 µM; `O=C(ON=C1c2ccccc2C(Br)C(Br)c2ccccc21)c1cc([N+](=O)[O-])cc([N+](=O)[O-])c1` (stereo not given): 40.5 µM; `Cn1c2ccccc2c2c(-c3ccccc3)cc3c(c21)C(=O)C=CC3=O`: greater than 9.15 µM.
The molecule `C=CCNC1=C2C[C@@H](C)C[C@@H](OC)[C@H](OC(=O)CCN)[C@H](C)/C=C(\C)[C@@H](OC(N)=O)[C@H](OC)/C=C\C=C(/C)C(=O)NC(=CC1=O)C2=O` had a TGI greater than 100 µM.
Still for that read-out and setting: to `C1=NCCN2CCN(CCN=Cc3ccc(cc3)OCc3cccc(n3)COc3ccc1cc3)CC2` belongs greater than 50 µM; to `CC(CCN)(CCN)[N+](=O)[O-]`, greater than 100 µM; to `O=C([O-])C[n+]1ccccc1`, greater than 100 µM.

A further assay concerns HCT-15 colon. The assay is described as follows: growth of human tumour cells (NCI), 48 h.
Take `OC1(c2cccs2)c2cccc(Cl)c2C(O)(c2cccs2)c2c(Cl)cccc21` (stereo not given): the TGI was greater than 100 µM.
Same read-out and setting: to `CCc1c2c([nH]c(=S)c1C#N)CCC2` belongs greater than 100 µM; to `C=CCN1C(=O)/C(=C/c2ccc(OC)cc2)N=C1SC/C=C/C`, greater than 100 µM; to `O=C(ON=C1c2ccccc2C(Br)C(Br)c2ccccc21)c1cc([N+](=O)[O-])cc([N+](=O)[O-])c1` (stereo not given), 42.7 µM.
As to `Cn1c2ccccc2c2c(-c3ccccc3)cc3c(c21)C(=O)C=CC3=O`, the TGI worked out at 5.41 µM.
On to `C=CCNC1=C2C[C@@H](C)C[C@@H](OC)[C@H](OC(=O)CCN)[C@H](C)/C=C(\C)[C@@H](OC(N)=O)[C@H](OC)/C=C\C=C(/C)C(=O)NC(=CC1=O)C2=O`, for which the TGI turned out to be 23.7 µM.
Same read-out and setting: next, `C1=NCCN2CCN(CCN=Cc3ccc(cc3)OCc3cccc(n3)COc3ccc1cc3)CC2`: greater than 50 µM; `CC(CCN)(CCN)[N+](=O)[O-]`: greater than 100 µM; `O=C([O-])C[n+]1ccccc1`: greater than 100 µM.
